Measurements reported in patent US9259470B2, “Serine/threonine kinase inhibitors” (Array BioPharma Inc., priority 2012, dated 2016).

Tested on: PMA-stimulated P90RSK(Ser380) phosphorylation in HepG2 cells
Assay: Cellular P90RSK(Ser380) Phosphorylation Assay (Biological Example 2)
Format: cell-based
Details: read-out: Biological Example 2 IC50, 1.5 hours compound incubation, PMA 100 ng/mL 30 minutes, normalized to GAPDH, single assay or mean of multiple assays
Protocol: Inhibition of PMA-stimulated P90RSK(Ser380) phosphorylation was determined by the following in vitro cellular mechanistic assay, which comprises incubating cells with a compound for 1.5 hours and quantifying fluorescent pP90RSK(Ser380) signal on fixed cells and normalizing to GAPDH signal.
HepG2 cells were obtained from ATCC and grown in DMEM supplemented with 10% fetal bovine serum. Cells were plated in 96-well plates at 35,000 cells/well and allowed to attach overnight at 37° C./5% CO2. Diluted compounds were then added at a final concentration of 0.5% DMSO. After 1.5 hours compound incubation, cells were stimulated with the addition of phorbol 12-myristate 13-acetate (“PMA”) at a final concentration of 100 ng/mL; the PMA stimulation was a 30-minute incubation at 37° C./5% CO2. After the 30-minute PMA stimulation, cells were washed with phosphate buffered saline (“PBS”) and fixed in 3.7% formaldehyde in PBS at room temperature for 15-20 minutes. This was followed by another wash in PBS and then permeabilization in 100% MeOH at room temperature for 10-15 minutes. Following the permeabilization incubation, cells were washed in PBS/0.05% Tween-20, followed by a block in Odyssey blocking buffer (LI-COR Biosciences) for at least 1 hour. […] Cells were then washed and analyzed for fluorescence at both wavelengths using the Odyssey Infrared Imaging System (LI-COR Biosciences). […]

Structure (SMILES): Cc1cc(Nc2nccc(-c3ccn([C@H](CO)c4ccc(Cl)c(F)c4)c(=O)c3)n2)n(C)n1 [Example 167, (S)-1-(1-(4-chloro-3-fluorophenyl)-2-hydroxyethyl)-4-(2-((1,3-dimethyl-1H-pyrazol-5-yl)amino)pyrimidin-4-yl)pyridin-2(1H)-one]
- IC50: 100 nM
